Measurements as given in patent US4069382A, “9-(5-O-Acyl-β-D-arabinofuranosyl)adenine compounds” (Parke, Davis & Company, priority 1976, dated 1978).
≈ marks a conversion by molar mass, not a printed value.

Assay: water solubility
Assay type: physicochemical
Conditions: ph 7 buffer, pH 7

water solubility [µg/mL]	Compound
16100 (≈ 47.7 mM)	CCCC(=O)OC[C@H]1O[C@@H](n2cnc3c(N)ncnc32)[C@@H](O)[C@@H]1O [Example 3, 9-(5-O-butyryl-β-D-arabinofuranosyl)adenine]

Same assay, conditions: ph 7 buffer, pH 7, aqueous buffer

Compound	solubility [µg/mL]
CC(=O)OC[C@H]1O[C@@H](n2cnc3c(N)ncnc32)[C@@H](O)[C@@H]1O [Example 1, 9-(5-O-acetyl-β-D-arabinofuranosyl)adenine]	9900 (≈ 32 mM)
CCC(=O)OC[C@H]1O[C@@H](n2cnc3c(N)ncnc32)[C@@H](O)[C@@H]1O [Example 2, 9-(5-O-propionyl-β-D-arabinofuranosyl)adenine]	9200 (≈ 28.5 mM)
CC(C)CC(=O)OC[C@H]1O[C@@H](n2cnc3c(N)ncnc32)[C@@H](O)[C@@H]1O [Example 5, 9-[5-O-(3-methylbutyryl)-β-D-arabinofuranosyl]-adenine]	16400 (≈ 46.7 mM)
CC(C)(C)C(=O)OC[C@H]1O[C@@H](n2cnc3c(N)ncnc32)[C@@H](O)[C@@H]1O [Example 6, 9-[5-O-(2,2-dimethylpropionyl)-β-D-arabinofuranosyl]-adenine]	7000 (≈ 19.9 mM)

Results, then the molecule that gave them:

solubility [µg/mL]	Compound
8400 (≈ 23.9 mM)	CCCCC(=O)OC[C@H]1O[C@@H](n2cnc3c(N)ncnc32)[C@@H](O)[C@@H]1O [Example 4]
2500 (≈ 6.84 mM)	CCCCCC(=O)OC[C@H]1O[C@@H](n2cnc3c(N)ncnc32)[C@@H](O)[C@@H]1O [Example 7, 9-(5-O-hexanoyl-β-D-arabinofuranosyl)adenine]
